Results published in the supplement of paper PMC13380429.

Tests used:
Conditions in all cases: 72 h
Caco-2 [1] = assay: cell viability relative to DMSO; higher = less toxic
Calu-3 [2] = assay: as above
HepG2 [3] = assay: as above
U2OS [4] = assay: as above
Vero E6 [5] = assay: as above
Caco-2 [6] = assay: relative viability EC50 (midpoint between 100% and the lowest measured viability); higher = less toxic
Calu-3 [7] = assay: as above
HepG2 [8] = assay: as above
U2OS [9] = assay: as above
Caco-2 [10] = assay: drug sensitivity score (DSS) for viability; higher = more toxic; extreme values may be limits of the assay
Calu-3 [11] = assay: as above
HepG2 [12] = assay: as above
U2OS [13] = assay: as above
Vero E6 [14] = assay: as above
Vero E6 [15] = assay: relative viability EC50 (midpoint between 100% and the lowest measured viability); higher = less toxic

SMILES	cell viability (Caco-2 [1]; 1 nM) [%]	cell viability (Caco-2 [1]; 10 nM) [%]	cell viability (Caco-2 [1]; 100 nM) [%]	cell viability (Caco-2 [1]; 1000 nM) [%]	cell viability (Caco-2 [1]; 10000 nM) [%]	cell viability (Calu-3 [2]; 1 nM) [%]	cell viability (Calu-3 [2]; 10 nM) [%]	cell viability (Calu-3 [2]; 100 nM) [%]	cell viability (Calu-3 [2]; 1000 nM) [%]	cell viability (Calu-3 [2]; 10000 nM) [%]	cell viability (HepG2 [3]; 1 nM) [%]	cell viability (HepG2 [3]; 10 nM) [%]	cell viability (HepG2 [3]; 100 nM) [%]	cell viability (HepG2 [3]; 1000 nM) [%]	cell viability (HepG2 [3]; 10000 nM) [%]	cell viability (U2OS [4]; 1 nM) [%]	cell viability (U2OS [4]; 10 nM) [%]	cell viability (U2OS [4]; 100 nM) [%]	cell viability (U2OS [4]; 1000 nM) [%]	cell viability (U2OS [4]; 10000 nM) [%]	cell viability (Vero E6 [5]; 1 nM) [%]	cell viability (Vero E6 [5]; 10 nM) [%]	cell viability (Vero E6 [5]; 100 nM) [%]	cell viability (Vero E6 [5]; 1000 nM) [%]	cell viability (Vero E6 [5]; 10000 nM) [%]	relative viability EC50 (Caco-2 [6]) [µM]	relative viability EC50 (Calu-3 [7]) [µM]	relative viability EC50 (HepG2 [8]) [µM]	relative viability EC50 (U2OS [9]) [µM]	drug sensitivity score (Caco-2 [10])	drug sensitivity score (Calu-3 [11])	drug sensitivity score (HepG2 [12])	drug sensitivity score (U2OS [13])	drug sensitivity score (Vero E6 [14])	relative viability EC50 (Vero E6 [15]) [µM]
CCOC(=O)CCNc1cc(N2CCc3ccccc3CC2)nc(-c2ccccn2)n1 [GSK-J4]	93.2	88.2	104	70.9	17.4	103	89.5	96.5	97.5	21.2	103	103	97.8	104	33.5	97.8	97.6	99.3	94.8	5.5	93.9	101	91.7	96.8	63.2	1.28	2.93	3.45	2.74	8.6	4.7	3.4	6	2.3	–
CCCC(=O)OCOC(=O)C1=C(C)NC(C)=C(C(=O)OC)C1c1cccc(Cl)c1Cl (stereo unspecified) [cleviprex]	97.6	109	99.1	102	87	101	92	105	108	118	97.9	97.8	110	111	99.8	98.8	104	100	107	95.3	–	–	–	–	–	> 10	> 10	> 10	> 10	0.1	0	0	0	–	–
CN(C)CCCNC(=O)c1ccc(-c2cc(O)c3ncccc3c2)cc1 [ML324]	107	94.3	107	91.7	80.6	105	93.8	106	94.1	83.4	88.7	103	88.2	104	35.7	105	98.9	107	98.5	85	98.5	100	96.2	101	58.1	> 10	> 10	3.52	> 10	1.4	0.9	3.2	0.4	2	–
CC(=C(CCOC(=O)C(C)C)SSC(CCOC(=O)C(C)C)=C(C)N(C=O)Cc1cnc(C)nc1N)N(C=O)Cc1cnc(C)nc1N (stereo in doubt) [sulbutiamine]	90.8	105	70.2	98.5	81.8	109	111	112	105	89.1	101	84.5	112	95.3	97.4	101	106	105	101	92.8	100	84.3	98.7	89.2	95.1	–	> 10	> 10	> 10	1.2	0	0	0	0	> 10
Oc1c(I)cc(I)c2cccnc12 [iodoquinol]	107	94.3	97.1	96.3	63.1	106	98.6	99.7	93.4	98.4	109	99	93.7	99.9	36.1	104	100	102	98.5	85.2	100	106	100	99.8	68.1	–	> 10	3.15	> 10	2.4	0	3.5	0.4	1.5	–
N[C@H](Cc1c[nH]cn1)C(=O)O [copper-histidine]	106	102	107	98.8	107	105	94.4	84.8	82.1	99.5	110	98.7	103	104	89.3	101	96.1	95.8	97.3	97.3	–	–	–	–	–	> 10	> 10	> 10	> 10	0	0.1	0	0	–	–
O=C1[C@@H]2[C@H]3CC[C@H](C3)[C@@H]2C(=O)N1C[C@@H]1CCCC[C@H]1CN1CCN(c2nsc3ccccc23)CC1 [lurasidone]	94.5	100	99.6	104	64.5	99.8	97.8	105	94.7	105	106	106	99.5	96.9	89.2	104	107	95.9	102	88.4	104	102	103	99.6	97.2	–	> 10	> 10	> 10	1.4	0	0.1	0	0	> 10
Clc1ccc(CSC(Cn2ccnc2)c2ccc(Cl)cc2Cl)cc1 (stereo unspecified) [sulconazole]	99.5	92.7	97.3	94	63.5	107	95.5	102	110	96.7	86.9	87.4	102	99.1	98.1	97.5	101	96	101	93.7	106	104	104	95.4	94.6	–	> 10	> 10	> 10	2.7	0	0	0	0	> 10
CCc1nc(N)nc(N)c1-c1ccc(Cl)cc1 [pyrimethamine]	–	–	–	–	–	101	111	101	99	107	108	91.5	102	93.2	77.9	100	108	99.8	102	96.8	96.3	93	103	99.9	60.7	–	> 10	> 10	> 10	–	0	1.6	0	2	–
Cc1ncc(CSSCc2cnc(C)c(O)c2CO)c(CO)c1O [pyritinol]	99.8	87.4	94.5	100	92.7	96.1	105	94.4	99.2	105	90	97.7	108	95.8	97.8	103	100	96.6	101	98.3	–	–	–	–	–	> 10	> 10	> 10	> 10	0	0	0	0	–	–
CC#C[C@]1(O)CC[C@H]2[C@@H]3CCC4=CC(=O)CCC4=C3[C@@H](c3ccc(N(C)C)cc3)C[C@@]21C [mifepristone]	88.8	93.4	94.1	100	72	96.2	103	88.7	96.3	109	93.6	92.6	102	90.3	99	100	100	100	104	91.8	98	101	98.4	96.8	97.6	–	> 10	> 10	> 10	1.2	0	0	0	0	> 10
CN(C)CCCO[C@@H]1[C@H]2OC(C)(C)O[C@H]2O[C@@H]1[C@H](O)CO [amiprilose]	107	86.8	101	95.1	97.3	98.7	102	98	101	100	91.3	102	97.3	99.6	85.8	102	99.8	100	103	101	–	–	–	–	–	> 10	> 10	> 10	> 10	0	0	0.2	0	–	–
CC1(C)CCC[C@]2(C)[C@H]3CC(=O)O[C@]3(C)CC[C@@H]12 [Sclareolide (Norambreinolide)]	95.7	96.6	92.7	102	88.5	100	104	99.4	107	87.6	106	99.1	108	101	100	100	100	97	99.5	99.5	–	–	–	–	–	> 10	> 10	> 10	> 10	0	0	0	0	–	–
Nc1nc(=O)[nH]cc1F [flucytosine]	97.6	94	100	96.5	92.9	87.6	102	99.9	91.1	111	101	110	97.6	109	110	98.6	99.2	102	97.9	104	–	–	–	–	–	> 10	> 10	> 10	> 10	0	0	0	0	–	–
CCCCCCCCCCCCOCCOCCOCCOCCOCCOCCOCCOCCOCCO [polidocanol]	85.7	105	99.9	108	69.7	106	105	99.6	106	91.5	105	98.5	124	111	28.9	91.5	103	95.4	101	90.4	99.5	89.7	104	108	116	–	> 10	3.8	> 10	1	0	3.3	0	0	> 10
